# Laboratory results as given in patent US20220287949A1, “SAFE PARTICLES FOR THE INTRODUCTION OF USEFUL CHEMICAL AGENTS IN THE BODY WITH CONTROLLED ACTIVATION” (priority 2019, published 2022).
# Read-outs that look alike come from different tables or passages of the source.
# How the values were obtained:
# [1] = system: NIH 3T3 murine fibroblasts; experiment: Cytotoxicity of particle components (MTS assay); format: cell-based; conditions: dye solution in ethanol, NIH 3T3, 24 hours, 37° C.
# Description: Dye components were each dissolved in ethanol (molecular grade ethanol from Fisher Scientific) to produce a stock solution at 1 mM (B141, M071, and Epolight™ 1117) or 100 μM (C161). For each stock solution, additional dilutions were made at 2×, 4×, 8×, 16×, 32×, 64×, and 128×, and each concentration was tested for cytotoxicity against NIH 3T3 murine fibroblasts in a cytotoxicity test. NIH-3T3 cells were plated in a 96-well culture plate at a density of 10,000 cells per well and allowed to adhere to the surface overnight. Different concentrations of the dye solution were added to the NIH 3T3 cells and incubated for 24 hours at 37° C., in a 5% CO2 incubator. Controls for the cytotoxicity experiment included “live” and “dead” (cells were killed due to osmotic pressure by adding D.I. water). “Live” cells had nothing except cell culture media containing 10% FBS added to them and were used to obtain the 100% viability data. The “dead” control was used to obtain the 0% viability data point. After 24 hours, cells were washed twice with 1× PBS containing calcium and magnesium and 100 μL of media was added at the end. To a final volume of 100 μL of media in the wells, 20 μL of PMS activated MTS reagent was added and incubated for 90 minutes. At the end of the 90 minutes, absorbance was measured at 490 nm using a plate reader (Spectramax M2e, Molecular Devices). Viability of cells was calculated using the absorbance measured for the “live” (100%) and “dead” (0%) controls and the results of % viability estimated from the absorbance for the different concentrations of the dyes were plotted in MS Excel using linear regression curve fitting algorithm to obtain the IC30. All the samples were tested in triplicate and results were averaged over the three repeats.
# [2] = Laser triggered changing of color of tattoo particles in gelatin; conditions: for Abs: M071 at 458 nm, IR at 1064 nm
# Description: Procedure: A solution of gelatin was prepared by adding Knox gelatin (1.0 g) to cold water (12.5 g) in a 100 mL glass jar equipped with a magnetic stir bar. The gelatin was stirred 15-30 minutes and then hot water was added (70° C.) until the total weight was 50.0 g. This gelatin was then used in 2.0 gm aliquots. Colorant loaded PMMA-BMA B-805 copolymer particles with 25% VTMS shells as prepared in Example lb above (20-30 mg) were then added to the gelatin solution (2.0 g) and vortexed in a 4 dram vial. The suspension of the tattoo particles in gelatin was then sonicated for 15-30 minutes before transferring to a 5 cm plastic culture dish. The gelatin suspension was spread evenly and allowed to set. It was then covered and stored at 6° C. until used.
# Laser exposure was accomplished as follows: The cover for the culture dish was removed and a 5 cm clear plastic cover was cut and fit over the gelatin to prevent splatter. The top surface was then completely irradiated at 1064 nm with a 5 mm spot using fluences ranging from 2.46 J/cm^2 to 5.09 J/cm^2 using a Nd-YAG Q-switched Lutronic laser (Lutronic Spectra™ VRM II Laser with four distinct Q-switched mode wavelengths: 1064 nm, 532 nm, 585 nm, 650 nm, nano second pulse width, and spectra peak energy: 60 MW, 120 MW and 240 MW).
# After irradiating the top surface, the culture dish was covered with its lid, turned over and irradiated from the opposite side to reach any unexposed particles visible only from the bottom side.
# Following the complete irradiation, the plastic cover was removed and any adhered gelatin was transferred to a 10 ml centrifuge tube. The gelatin from the culture dish was also removed and transferred to the centrifuge tube with the aid of about 5 ml of water. The culture tube was rinsed with water and any suspended gelatin transferred by pipette to the centrifuge tube. The material in the tube was sonicated until the gelatin was redissolved (20-30 minutes, about 40° C.).
# The sample was centrifuged for 20 minutes and the supernatant was removed. The recovered particles were slurried again with water, centrifuged, and the wash water removed. The resultant particles were dried in vacuum at room temperature and analyzed spectroscopically for the presence of dyes as in 2b above.
# The standard fluence for removal of tattoo color in designs using these particles is 3.51 J/cm^2. 5.09 J/cm^2 is the maximum fluence on the Lutronic laser using a 5 mm spot. The laser triggered color changing tests were performed on 2 μm 5:1 Y197 (12.5% Y197:6.25% IR 1117), 2 μm 7:1 M071 (6.25% M071, 8.0 wt. % IR 1117), 2 μm 5:1 PBS (2.56 wt. % B141, 0.77 wt. % C161, 0.39 wt. % M071, 1.28 wt. % Y184, 8.0 wt. % IR1117), 2 μm 5:1 Y184 (12.5 wt. % Y184, 8.0 wt. % IR 1117) particles in the entries 21-24 of Table 3 above.(the numeric ratio is weight ratio of PMMA-BMA B-805 copolymer to colorant in the particle)
# [3] = Surfactant-based extractable test (dye leaching into 1% SDS); format: physicochemical
# Description: Dried particles (50 mg) were added to 3 mL of 1% sodium dodecyl sulfate to form a dispersion. The dispersion was sonicated for approximately 1 hour. The dispersion was centrifuged, and the supernatant component was withdrawn and filtered through a […] syringe filter. The absorbance spectrum of the filtrate was measured from 400-1300 nm using Shimadzu UV-3600 UV/VIS/NIR Spectrophotometer in a 1 cm cell.
# The amount of the dye leached is calculated as in 2b above by applying Beer's law (Eq. 1) to give leachate concentrations. Leaching reduction is defined as the percentage of dye leached from coated particles when compared to uncoated particles of the same structure.
# Portions of these particles were coated with several different shell thicknesses as described in Example lb above and tested for effectiveness in preventing dye leaching following the surfactant-based extractable test described in section Example 3b. […]
# [4] = cited from earlier work
# [5] = cited from earlier work; remark: listed apart in the source
# [6] = 2 μm 5% PB5 particles, 25% VTMS shell, fluence 0 J/cm^2 (no laser)
# [7] = 2 μm 5% PB5 particles, 1064 nm laser, fluence 3.51 J/cm^2
# [8] = 2 μm 5% PB5 particles, 1064 nm laser, fluence 4.28 J/cm^2
# [9] = 2 μm 5% PB5 particles, 1064 nm laser, fluence 5.09 J/cm^2
# [10] = 2 μm 7:1 M071 particles, 25% VTMS shell, fluence 0 J/cm^2 (no laser)
# [11] = 2 μm 7:1 M071 particles, 1064 nm laser, fluence 2.46 J/cm^2
# [12] = 2 μm 7:1 M071 particles, 1064 nm laser, fluence 3.03 J/cm^2
# [13] = 2 μm 7:1 M071 particles, 1064 nm laser, fluence 3.51 J/cm^2
# [14] = 2 μm 7:1 M071 particles, 1064 nm laser, fluence 4.28 J/cm^2
# [15] = 2 μm 7:1 M071 particles, 1064 nm laser, fluence 5.09 J/cm^2
# [16] = Table 7B: 0.5 μm 2:1 PB4 particles with a 25% VTMS shell vs uncoated
compound,measurement,setting,value
"3,6-bis(2,3-dihydro-1H-indol-1-yl)-9-[2-[[[(1,1-dimethylethoxy)carbonyl]methylamino]sulfonyl]phenyl]-xanthylium [C161]",IC30 (70% viability),[1],14.65 μM^a
same,IC30 (70% viability),[1]; listed as Cyan dye,about 14 μM
"3,6-bis[(2-chlorophenyl)methylamino]-9-[2-[[[(1,1-dimethylethoxy)carbonyl]methylamino]sulfonyl]phenyl]-xanthylium [M071]",% Reduction,[2]; [6],0%
same,Abs,[2]; [6],0.023
same,% Reduction,[2]; [7],30%
same,Abs,[2]; [7],0.016
same,% Reduction,[2]; [8],30%
same,Abs,[2]; [8],0.016
same,% Reduction,[2]; [9],30%
same,Abs,[2]; [9],0.016
same,% Reduction,[2]; [10],0%
same,Abs,[2]; [10],0.207
same,% Reduction,[2]; [11],23%
same,Abs,[2]; [11],0.159
same,% Reduction,[2]; [12],30%
same,Abs,[2]; [12],0.146
same,% Reduction,[2]; [13],34%
same,Abs,[2]; [13],0.137
same,% Reduction,[2]; [14],47%
same,Abs,[2]; [14],0.109
same,% Reduction,[2]; [15],43%
same,Abs,[2]; [15],0.119
same,fluence at which the dye decay levels off,"[2]; 1064 nm laser, particles in gelatin",4.28 J/cm^2
same,decay (reduction) after laser irradiation,"[2]; M071 particles, 1064 nm laser, fluences 2.46 to 5.09 J/cm^2",about 50%
same,IC30 (70% viability),[1],63.23 μM^a
same,IC30 (70% viability),[1]; listed as Magenta,about 61 μM
"6-(dibutylamino)-9-[2-[[[(1,1-dimethylethoxy)carbonyl](methylsulfonyl)amino]methyl]phenyl]-3-methyl-2-(phenylamino)-xanthylium [B141]",IC30 (70% viability),[1],61.22 μM^a
same,IC30 (70% viability),[1]; listed as Black,about 61 μM
"9-[2-[[[(1,1-dimethylethoxy)carbonyl]methylamino]sulfonyl]phenyl]-3,6-diphenoxy-xanthylium [Y161]",Leachate concentration,[3]; Table 7B: 0.5 μm 2:1 PB4 particles with a 25% VTMS shell,1.2 µM
same,Leaching reduced to,[3]; [16],1.4%
same,Reduction Factor,[3]; [16],72.6
same,Leachate concentration,"[3]; Table 7B: 0.5 μm 2:1 PB4 particles, uncoated particle",87.1 µM
"NC(=O)CN(CC(=O)O)CC(=O)O [ADA, 2-[(2-amino-2-oxoethyl)-(carboxymethyl)amino]acetic acid]",pKa at 20° C.,[4],6.62
CC(C)(CO)NCCCCS(=O)(=O)O [AMPB],pKa at 20° C.,[4],8.8
O=S(=O)(O)CCCNC1CCCCC1 [CAPS],pKa at 20° C.,[4],10.4
C[N+](C)(C)CCN [Cholamine chloride],Solubility in water at 0° C.,[5]; (as HCl),4200 mM
same,pKa at 20° C.,[4],7.10
NCC(N)=O [Glycinamide],Solubility in water at 0° C.,[5]; (as HCl),6400 mM
same,pKa at 20° C.,[4],8.2
"O=S(=O)(O)CCCN1CCN(CCO)CC1 [HEPPS, 3-[4-(2-Hydroxyethyl)piperazin-1-yl]propane-1-sulfonic acid]",Solubility in water at 0° C.,[5],Large
same,pKa at 20° C.,[4],8.1
O=S(=O)(O)CC(O)CN1CCN(CCO)CC1 (stereo not shown) [HEPPSO],Solubility in water at 0° C.,[5],2200 mM
"O=S(=O)(O)CC(O)CN1CCOCC1 (stereo not shown) [MOPSO, 2-hydroxy-3-morpholin-4-ylpropane-1-sulfonic acid]",Solubility in water at 0° C.,[5],750 mM
"O=S(=O)(O)CCN1CCN(CCS(=O)(=O)O)CC1 [PIPES, piperazine-N,N′-bis(2-ethanesulfonic acid)]",pKa at 20° C.,[4],6.82
"O=S(=O)(O)CC(O)CNC(CO)(CO)CO (stereo not shown) [TAPSO, 3-[[1,3-dihydroxy-2-(hydroxymethyl)propan-2-yl]amino]-2-hydroxypropane-1-sulfonic acid]",Solubility in water at 0° C.,[5],1000 mM
O=S(=O)(O)CCCNC(CO)(CO)CO [TAPS],Solubility in water at 0° C.,[5],Large
